Reference: patent US20240269489A1, “TREATMENT OF THE CENTRAL NERVOUS SYSTEM” (ACT Therapeutics Ltd, priority 2021, published 2024)

System: subcutaneous prostate cancer model (PC3)
Assay: Tumour specific uptake of Evans Blue after ACT, variable Enhancement MI
Assay type: in vivo, mice
Conditions: cluster composition 2 mL/kg i.v.; Enhancement 0.5 MHz, MI 0, 0.1, 0.2, 0.3, 0.4; tumours excised 30 min after treatment
Protocol: To investigate the effect of MI variance of the US Enhancement field, tumour specific uptake of Evans Blue (EB, fluorescent dye) has been investigated in a subcutaneous prostate cancer model (PC3) in mice. Five groups with Enhancement insonation MIs of 0, 0.1, 0.2, 0.3 and 0.4 were investigated (N=3 animals per group). […] 30 min after treatment, the tumors were excised and the amount of EB was measured by spectrophotometry at 620 nm.

## Cc1cc(-c2ccc(/N=N/c3ccc4c(S(=O)(=O)O)cc(S(=O)(=O)O)c(N)c4c3O)c(C)c2)ccc1/N=N/c1ccc2c(S(=O)(=O)O)cc(S(=O)(=O)O)c(N)c2c1O [Evans Blue]
  tissue uptake of Evans Blue as a function of Enhancement MI: increases from no US (MI=0) to MI=0.1 and further with MI=0.2, but then drops again with MI=0.3
